Test results: patent US10975068B2, “6-aminopyridin-3-yl thiazoles as modulators of RORγT” (Janssen Pharmaceutica NV, priority 2016, dated 2021)
Read-outs that look alike come from different tables or passages of the source.

Experiments:
[1] = target: human RORγt ligand binding domain (RORγt LBD) (Homo sapiens (Human), UniProt P51449); assay: RORγt ThermoFluor® assay (thermal shift binding); settings: read-out: ThermoFluor® Assay, Kd
Source text: ThermoFluor® is a fluorescence based assay that estimates ligand binding affinities by measuring the effect of a ligand on protein thermal stability (Pantoliano, M. W., Petrella, E. C., Kwasnoski, J. D., Lobanov, V. S., Myslik, J., Graf, E., Carver, T., Asel, E., Springer, B. A., Lane, P., and Salemme, F. R. (2001) High-density miniaturized thermal shift assays as a general strategy for drug discovery. J Biomol Screen 6, 429-40, and Matulis, D., Kranz, J. K., Salemme, F. R., and Todd, M. J. (2005) Thermodynamic stability of carbonic anhydrase: measurements of binding affinity and stoichiometry using ThermoFluor. Biochemistry 44, 5258-66). This approach is applicable to a wide variety of systems, and rigorous in theoretical interpretation through quantitation of equilibrium binding constants (KD).
The shift in the melting point described as a ΔTm is proportional to the concentration and affinity of the ligand. The compound potency may be compared as a rank order of either ΔTm values at a single compound concentration or in terms of KD values, estimated from concentration response curves.
RORγt ThermoFluor® Assay Construct
For the RORγt construct used in the ThermoFluor® assay, numbering for the nucleotide sequences was based on the reference sequence for human RORγt, transcript variant 2, NCBI Accession: NM_001001523.1 (SEQ ID NO:1). Nucleotides 850-1635 (SEQ ID NO:2) coding for the wild type human RORγt ligand binding domain (RORγt LBD) were cloned into the pHIS1 vector, a modified pET E. coli expression vector (Accelagen, San Diego), containing an in-frame N-terminal His-tag and a TurboTEV protease cleavage site (ENLYFQG, SEQ ID NO:3) upstream of the cloned insert sequence. The amino acid sequence for the RORγt construct used in the Thermofluor® assay is shown as SEQ ID NO:4.
ThermoFluor® experiments were carried out using instruments owned by Janssen Research and Discovery, L.L.C. through its acquisition of 3-Dimensional Pharmaceuticals, Inc. 1,8-ANS (Invitrogen) was used as a fluorescent dye. Protein and compound solutions are dispensed into black 384-well polypropylene PCR microplates (Abgene) and overlayed with silicone oil (1 μL, Fluka, type DC 200) to prevent evaporation.
Bar-coded assay plates are robotically loaded onto a thermostatically controlled PCR-type thermal block and then heated at a typical ramp-rate of 1° C./min for all experiments. Fluorescence was measured by continuous illumination with UV light (Hamamatsu LC6) supplied via fiber optic and filtered through a band-pass filter (380-400 nm; >6 OD cutoff). Fluorescence emission of the entire 384-well plate was detected by measuring light intensity using a CCD camera (Sensys, Roper Scientific) filtered to detect 500±25 nm, resulting in simultaneous and independent readings of all 384 wells. Images were collected at each temperature, and the sum of the pixel intensity in a given area of the assay plate was recorded versus temperature. Reference wells contained RORγt without compounds, and the assay conditions were as follows: • 0.065 mg/mL RORγt • 60 μM 1,8-ANS • 100 mM Hepes, pH 7.0 • 10 mM NaCl • 2.5 mM GSH • 0.002% Tween-20
Project compounds were arranged in a pre-dosed mother plate (Greiner Bio-one) wherein compounds are serially diluted in 100% DMSO by 1:2 from a high concentration of 10 mM over 12 columns within a series (column 12 is a reference well containing DMSO, no compound). The compounds were robotically dispensed directly into assay plates (×=46 nL) using a Hummingbird capillary liquid handling instrument (Digilab). Following compound dispense, protein and dye in buffer was added to achieve the final assay volume of 3 μL, followed by 1 μL of silicone oil.

full-length human RORγt = full-length human RORγt (Homo sapiens (Human), UniProt P51449); assay: RORγt (full-length human) reporter assay, Conditions B or C; assay type: cell-based; settings: for inhibition at 3 µM: at 3 μM compound concentration, read-out: RORγt (FL) Reporter Assay B or C, % inhibition
Source text: RORγt (Full-Length Human) Reporter Assay:
Cells used in this assay were transiently co-transfected with three different plasmids, one expressing the GAL4-DNA binding domain (DBD)-RORγt fusion protein under control of a CMV promoter (NH2-Gal4-DBD:RORC-COOH in pCMV-BD, Stratagene #211342), and two reporter plasmids—the firefly luciferase reporter under control of a GAL4 promoter (pFR-Luc 2×GAL4) and Renilla luciferase reporter under control of CMV promoter (pRL-CMV, Promega # E2261). The full-length coding sequence was used for human RORγt, i.e., nucleotides 142-1635 of human RORγt, transcript variant 2, NCBI Accession: NM_001001523.1 (SEQ ID NO:1). HEK293T cells were plated at 35,000 per well in 96-well plate in medium of DMEM with 10% FBS. After 18-22 hours incubation, the transfection was carried out by using a PEI solution with 170.5 ng total DNA/well (50 ng pCMV-BD-ROR plus 20 ng of pFR-Luc reporter and 0.5 ng of pRL-CMV reporter plus 100 ng Carrier DNA (Clontech #630440) for each well). 4-6 hours after transfection, cells were treated with compounds for overnight in the medium with final concentration of FBS 1.3% and DMSO 0.1%. After overnight (16 to 20 hours) incubation, media were removed and cells were lysed with 50 μL Glo Lysis Buffer (Promega) for 10-15 minutes followed by 10 minute incubation with 50 μL Dual Glo reagent (Promega) at room temperature. Firefly luciferase luminescence was measured using a BMG Pherastar plate reader. To each well, 50 μL Stop and Glo reagent was added and incubated for 10 minutes at room temperature. Renilla luminescence was measured using a BMG Pherastar plate reader. To calculate the effect of compounds on RORγt activity, firefly values were normalized against values of DMSO only and values of reference compound at saturating concentration, then further normalized against Renilla signals. IC50s were generated by plotting final Renilla normalized data against compound concentration and percent inhibition was calculated against DMSO control.
Cells used in this assay were transiently co-transfected with three different plasmids, one expressing the GAL4-DNA binding domain (DBD)-RORγt fusion protein under control of a CMV promoter (NH2-Gal4-DBD:RORC-COOH in pCMV-BD, Stratagene #211342), and two reporter plasmids—the firefly luciferase reporter under control of a GAL4 promoter (pFR-Luc 2×GAL4) and Renilla luciferase reporter under control of CMV promoter (pRL-CMV, Promega # E2261). The full-length coding sequence was used for human RORγt, i.e., nucleotides 142-1635 of human RORγt, transcript variant 2, NCBI Accession: NM_001001523.1 (SEQ ID NO:1). HEK293T cells were plated at 8750 cells per well in 384-well plate in medium of DMEM with 10% FBS. After 18-22 hours incubation, the transfection was carried out by using a PEI solution with 42.6 ng total DNA/well (12.5 ng pCMV-BD-ROR plus 5 ng of pFR-Luc reporter and 0.125 ng of pRL-CMV reporter plus 25 ng Carrier DNA (Clontech #630440) for each well). 4-6 hours after transfection, cells were treated with compounds for overnight in the medium with final concentration of FBS 1.3% and DMSO 0.1%. After overnight (16 to 20 hours) incubation, media were removed and cells were lysed with 20 μL Glo Lysis Buffer (Promega) for 10-15 minutes followed by 10 minute incubation with 20 μL Dual Glo reagent (Promega) at room temperature. Firefly luciferase luminescence was measured using a BMG Pherastar plate reader. To each well, 20 μL Stop and Glo reagent was added and incubated for 10 minutes at room temperature. Renilla luminescence was measured using a BMG Pherastar plate reader. To calculate the effect of compounds on RORγt activity, firefly values were normalized against values of DMSO only and values of reference compound at saturating concentration, then further normalized against Renilla signals.

[2] = read-out: RORγt (FL) Reporter Assay B or C, IC50

full-length human RORγt, sequence (P51449 other isoform, or with tags, fused parts or gaps): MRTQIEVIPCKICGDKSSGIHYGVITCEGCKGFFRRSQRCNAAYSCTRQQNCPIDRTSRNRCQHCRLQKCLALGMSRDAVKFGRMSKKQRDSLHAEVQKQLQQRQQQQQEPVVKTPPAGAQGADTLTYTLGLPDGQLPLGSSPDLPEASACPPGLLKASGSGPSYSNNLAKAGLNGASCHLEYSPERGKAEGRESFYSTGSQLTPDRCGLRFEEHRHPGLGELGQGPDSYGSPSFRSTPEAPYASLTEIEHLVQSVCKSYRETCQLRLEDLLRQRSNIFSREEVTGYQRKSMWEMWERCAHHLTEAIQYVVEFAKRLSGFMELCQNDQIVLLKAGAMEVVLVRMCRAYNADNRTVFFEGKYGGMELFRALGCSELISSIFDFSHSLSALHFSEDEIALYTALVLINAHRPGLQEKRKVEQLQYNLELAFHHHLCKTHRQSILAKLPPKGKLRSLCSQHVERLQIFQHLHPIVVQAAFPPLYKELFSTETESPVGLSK
human RORγt ligand binding domain (RORγt LBD), sequence (P51449 other isoform, or with tags, fused parts or gaps): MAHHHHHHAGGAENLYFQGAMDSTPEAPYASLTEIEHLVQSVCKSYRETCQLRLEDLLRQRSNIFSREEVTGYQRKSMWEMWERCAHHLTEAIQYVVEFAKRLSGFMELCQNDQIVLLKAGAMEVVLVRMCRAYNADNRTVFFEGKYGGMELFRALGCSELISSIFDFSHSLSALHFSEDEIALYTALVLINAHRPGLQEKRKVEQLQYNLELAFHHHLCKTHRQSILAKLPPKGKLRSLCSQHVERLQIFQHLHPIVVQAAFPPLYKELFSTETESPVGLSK

## C[C@H]1CCCN1C(=O)c1nc(C(=O)NC2CS(=O)(=O)C2)sc1-c1cnc(NC(C)(C)C)cc1C(F)(F)F [Example 260, 5-[6-(tert-Butylamino)-4-(trifluoromethyl)-3-pyridyl]-N-(1,1-dioxothietan-3-yl)-4-[(2S)-2-methylpyrrolidine-1-carbonyl]thiazole-2-carboxamide]
[1]
  Kd: 0.7 nM
full-length human RORγt
  inhibition at 3 µM: 112%
full-length human RORγt; [2]
  IC50: 14 nM

## C[C@H](CO)NC(=O)c1nc(C(=O)N2CC(F)(F)C[C@@H]2C)c(-c2cnc(NC(C)(C)C)cc2C(F)F)s1 [Example 428, 5-[6-(tert-Butylamino)-4-(difluoromethyl)-3-pyridyl]-4-[(2S)-4,4-difluoro-2-methyl-pyrrolidine-1-carbonyl]-N-[(1R)-2-hydroxy-1-methyl-ethyl]thiazole-2-carboxamide]
[1]
  Kd: 1 nM
full-length human RORγt
  inhibition at 3 µM: 113%
full-length human RORγt; [2]
  IC50: 17 nM

## C[C@H]1CC(F)(F)CN1C(=O)c1nc(C(=O)NC2CCS(=O)(=O)CC2)sc1-c1cnc(NC(C)(C)C)cc1C(F)F [Example 431, 5-[6-(tert-Butylamino)-4-(difluoromethyl)-3-pyridyl]-4-[(2S)-4,4-difluoro-2-methyl-pyrrolidine-1-carbonyl]-N-(1,1-dioxothian-4-yl)thiazole-2-carboxamide]
[1]
  Kd: 0.36 nM
full-length human RORγt
  inhibition at 3 µM: 107%
full-length human RORγt; [2]
  IC50: 20 nM

## C[C@H]1CCCN1C(=O)c1nc(C(=O)NCC(C)(C)O)sc1-c1cnc(N[C@@H]2CCCCC2(F)F)cc1C(F)(F)F (relative stereo) [Example 35, 5-(6-(((R*)-2,2-Difluorocyclohexyl)amino)-4-(trifluoromethyl)pyridin-3-yl)-N-(2-hydroxy-2-methylpropyl)-4-((S)-2-methylpyrrolidine-1-carbonyl)thiazole-2-carboxamide]
[1]
  Kd: 3.9 nM
full-length human RORγt; Conditions B or C, read-out: RORγt (FL) Reporter Assay B or C, IC50
  IC50: 20 nM
full-length human RORγt; read-out: RORγt (FL) Reporter Assay B or C, % inhibition @ 6 μM, Conditions B or C, @ 6 μM
  inhibition at 6 µM: 114%

## CC(C)(C)Nc1cc(C(F)F)c(-c2sc(C(=O)N[C@@H]3CCC[C@H]3O)nc2C(=O)N2C3CCC2CC3)cn1 [Example 434, 4-((1s,4s)-7-Azabicyclo[2.2.1]heptane-7-carbonyl)-5-[6-(tert-butylamino)-4-(difluoromethyl)-3-pyridyl]-N-[(1R,2R)-2-hydroxycyclopentyl]thiazole-2-carboxamide]
[1]
  Kd: 0.63 nM
full-length human RORγt; RORγt (FL) Reporter Assay B or C, IC50
  IC50: 11 nM
full-length human RORγt
  inhibition at 3 µM: 103%

## C[C@H]1CCCN1C(=O)c1nc(C(=O)NCC(C)(C)O)sc1-c1cnc(NC2CCCCC2)c(C#N)c1 [Example 281, 5-[5-Cyano-6-(cyclohexylamino)-3-pyridyl]-N-(2-hydroxy-2-methyl-propyl)-4-[(2S)-2-methylpyrrolidine-1-carbonyl]thiazole-2-carboxamide]
full-length human RORγt
  inhibition at 3 µM: 98%
full-length human RORγt; [2]
  IC50: 830 nM

## [2H]C([2H])(NC(=O)c1nc(C(=O)N2CCC[C@@H]2C)c(-c2cnc(N[C@@H](C)C(F)(F)F)cc2C(F)F)s1)C(C)(C)O [Example 286, 5-(4-(Difluoromethyl)-6-(((S)-1,1,1-trifluoropropan-2-yl)amino)pyridin-3-yl)-N-(2-hydroxy-2-methylpropyl-1,1-d2)-4-((S)-2-methylpyrrolidine-1-carbonyl)thiazole-2-carboxamide]
full-length human RORγt
  inhibition at 3 µM: 104%

## CC[C@H](Nc1cc(C(F)F)c(-c2sc(C(=O)NCC(C)(C)O)nc2C(=O)N2CCC[C@@H]2C)cn1)C(F)(F)F [Example 92, 5-(4-(Difluoromethyl)-6-(((S)-1,1,1-trifluorobutan-2-yl)amino)pyridin-3-yl)-N-(2-hydroxy-2-methylpropyl)-4-((S)-2-methylpyrrolidine-1-carbonyl)thiazole-2-carboxamide]
full-length human RORγt; Conditions B or C, marked *: footnote not given
  RORγt (FL) Reporter Assay B or C, % inhibition (value marked *): 106* %

## C[C@H](Nc1cc(C(F)F)c(-c2sc(C(=O)NCC(C)(C)O)nc2C(=O)N2CCC[C@@H]2C)cn1)C(F)(F)F [Example 145, 5-(4-(Difluoromethyl)-6-(((S)-1,1,1-trifluoropropan-2-yl)amino)pyridin-3-yl)-N-(2-hydroxy-2-methylpropyl)-4-((S)-2-methylpyrrolidine-1-carbonyl)thiazole-2-carboxamide]
full-length human RORγt; Conditions B or C, marked ***: footnote not given
  RORγt (FL) Reporter Assay B or C, % inhibition (value marked ***): 76*** %

## [2H]C([2H])(NC(=O)c1nc(C(=O)N2CCC[C@@H]2C)c(-c2cnc(N[C@@H](CC)C(F)(F)F)cc2C(F)F)s1)C(C)(C)O [Example 266, N-(1,1-Dideuterio-2-hydroxy-2-methyl-propyl)-5-[4-(difluoromethyl)-6-[[(1S)-1-(trifluoromethyl)propyl]amino]-3-pyridyl]-4-[(2S)-2-methylpyrrolidine-1-carbonyl]thiazole-2-carboxamide]
full-length human RORγt
  inhibition at 3 µM: 100%
